{"source": "patent US20260263485A1", "about": "“AMINOSTEROL COMPOUNDS, AMINOSTEROL-CYCLODEXTRIN FORMULATIONS, AND METHODS OF USING THE SAME” (Enterin, Inc., priority 2022, published 2026)", "key": {"[1]": {"assay": "Identification of metabolites of ENT-03S in rat plasma and urine samples (UPLC-MS/MS)", "format": "in vivo", "description": "An equal number of rat urine (50 μL) were taken from different animals at various time points following administration of ENT-03S. For plasma samples, the Hamilton pooling method was used.\nStudy design: An equal number of rat urine (50 μL) samples were taken from different animals at various time points from study No.: PH-DMPK-ETR-21-001 following administration of ENT-03S. For plasma samples, the Hamilton pooling method was used.\nThe samples were then analysed using UPLC-MS/MS.\nCompound dependent parameters were optimized by ENT-03S."}, "[2]": {"assay": "Plasma pharmacokinetics of ENT-03S cyclodextrin formulation after subcutaneous injection", "format": "in vivo, rat", "settings": "20% beta-cyclodextrin formulation, male SD rats", "description": "In this example, ENT-03S was formulated with unmodified beta-cyclodextrin at a concentration of 25 mg/ml ENT-03, and 20% beta-cyclodextrin, pH 7.5, buffered with phosphate.\nMale Sprague-Dawley rats were administered the ENT-03-cyclodextrin formulation subcutaneous at a dose of 10 mg/kg. Blood samples were drawn from the tail vein at various times, the concentrations of ENT-03 determined, and PK parameters determined."}, "[3]": {"settings": "SC Dose 10 mg/kg, plasma, individual rats, 10 mg/kg"}}, "note": "Several values for one entry are separate records, joined by “and”; a condition that tells them apart may be missing. Equal values may be shown once. Read-outs that look alike come from different tables or passages of the source.", "data": [{"smiles": "C[C@H](CCC[C@H](C)C(=O)O)[C@H]1CCC2C3C(CC[C@@]21C)[C@@]1(C)CC[C@H](NCCCNCCCCNCCCN)C[C@@H]1C[C@H]3O", "note": "(stereo partly drawn) [ENT-03S, (2S,6R)-6-((3S,5R,7R,10S,13R,17R)-3-((3-((4-((3-aminopropyl)amino)butyl)amino)propyl)amino)-7-hydroxy-10,13-dimethylhexadecahydro-1 H-cyclopenta[a]phenanthren-17-yl)-2-methylheptanoic acid]", "values": [{"measurement": "Metabolite peak area percentages Rat Plasma Male", "setting": "[1]; pooled male SD rat plasma 0.25-24 h after 10 mg/kg ENT-03S SC, relative XIC peak area", "result": 91.29, "unit": "%"}, {"measurement": "Metabolite peak area Rat Plasma Male", "setting": "[1]; pooled male SD rat plasma after 10 mg/kg ENT-03S SC, XIC peak area", "result": "6.03E+08"}, {"measurement": "Metabolite peak area percentages Rat Urine Male", "setting": "[1]; pooled male SD rat urine 0-24 h after 10 mg/kg ENT-03S SC, relative XIC peak area, “—”: not observed", "result": 71.94, "unit": "%"}, {"measurement": "Metabolite peak area Rat Urine Male", "setting": "[1]; pooled male SD rat urine after 10 mg/kg ENT-03S SC, XIC peak area, “—”: not observed", "result": "1.62E+06"}, {"measurement": "Concentration (ng/ml) Rat 1-3", "setting": "[2]; 10 mg/kg SC, 0.25 h, individual rats, 10 mg/kg", "result": "22000 ng/mL and 20800 ng/mL"}, {"measurement": "Concentration (ng/ml) Rat 1-3", "setting": "[2]; 10 mg/kg SC, 0.5 h, individual rats, 10 mg/kg", "result": "27100 ng/mL and 30200 ng/mL"}, {"measurement": "Concentration (ng/ml) Rat 1-3", "setting": "[2]; 10 mg/kg SC, 1 h, individual rats, 10 mg/kg", "result": "31700 ng/mL and 33000 ng/mL"}, {"measurement": "Concentration (ng/ml) Rat 1-3", "setting": "[2]; 10 mg/kg SC, 2 h, individual rats, 10 mg/kg", "result": "32700 ng/mL and 33300 ng/mL"}, {"measurement": "Concentration (ng/ml) Rat 1-3", "setting": "[2]; 10 mg/kg SC, 4 h, individual rats, 10 mg/kg", "result": "29600 ng/mL and 25400 ng/mL"}, {"measurement": "Concentration (ng/ml) Rat 1-3", "setting": "[2]; 10 mg/kg SC, 8 h, individual rats, 10 mg/kg", "result": "25000 ng/mL and 23000 ng/mL"}, {"measurement": "Concentration (ng/ml) Rat 1-3", "setting": "[2]; 10 mg/kg SC, 24 h, individual rats, 10 mg/kg", "result": "14100 ng/mL and 12600 ng/mL"}, {"measurement": "Concentration (ng/ml) Rat 1-3", "setting": "[2]; 10 mg/kg SC, 48 h, individual rats, 10 mg/kg", "result": "7700 ng/mL and 5620 ng/mL"}, {"measurement": "Concentration (ng/ml) Rat 1-3", "setting": "[2]; 10 mg/kg SC, 72 h, individual rats, 10 mg/kg", "result": "1850 ng/mL and 4200 ng/mL and 2440 ng/mL"}, {"measurement": "AUC_% Extrap_obs", "setting": "[2]; [3]", "result": "6.74% and 15.0% and 8.08%"}, {"measurement": "AUClast", "setting": "[2]; [3]", "result": "944.488 µg·h/mL and 811.185 µg·h/mL"}, {"measurement": "AUClast/D", "setting": "[2]; [3]", "result": "71600 kg·ng·h/mL/mg and 94400 kg·ng·h/mL/mg and 81100 kg·ng·h/mL/mg"}, {"measurement": "AUClnf", "setting": "[2]; [3]", "result": "1110.949 µg·h/mL and 882.526 µg·h/mL"}, {"measurement": "Cmax", "setting": "[2]; [3]", "result": "32700 ng/mL and 33300 ng/mL"}, {"measurement": "MRTlnf_obs", "setting": "[2]; [3]", "result": "24.3 h and 36.3 h and 27.2 h"}, {"measurement": "T1/2", "setting": "[2]; [3]", "result": "27.5 h and 20.3 h"}, {"measurement": "AUC_% Extrap_obs Mean", "setting": "[2]; SC Dose 10 mg/kg, plasma, mean", "result": 9.9, "unit": "%"}, {"measurement": "AUClast/D Mean", "setting": "[2]; SC Dose 10 mg/kg, plasma, mean", "result": 82400, "unit": "kg·ng·h/mL/mg"}, {"measurement": "MRTlnf_obs Mean", "setting": "[2]; SC Dose 10 mg/kg, plasma, mean", "result": 29.3, "unit": "h"}, {"measurement": "Tmax", "setting": "[2]; Sprague-Dawley, rat, SC Dose 10 mg/kg, plasma, individual rats, read-out: Tmax", "result": 2, "unit": "h"}, {"measurement": "concentration at 0.25 h", "setting": "[2]; male, Sprague-Dawley, rat, plasma, sc, 10 mg/kg, 10 mg/kg SC, 0.25 h, individual rats, read-out: Concentration (ng/ml) Rat 1-3", "result": 23100, "unit": "ng/mL"}, {"measurement": "concentration at 0.25 h", "setting": "[2]; male, Sprague-Dawley, rat, plasma, sc, 10 mg/kg, 10 mg/kg SC, 0.25 h, mean, read-out: Concentration Mean", "result": 22000, "unit": "ng/mL"}, {"measurement": "concentration at 0.5 h", "setting": "[2]; male, Sprague-Dawley, rat, plasma, sc, 10 mg/kg, 10 mg/kg SC, 0.5 h, individual rats, read-out: Concentration (ng/ml) Rat 1-3", "result": 25700, "unit": "ng/mL"}, {"measurement": "concentration at 0.5 h", "setting": "[2]; male, Sprague-Dawley, rat, plasma, sc, 10 mg/kg, 10 mg/kg SC, 0.5 h, mean, read-out: Concentration Mean", "result": 27700, "unit": "ng/mL"}, {"measurement": "concentration at 1 h", "setting": "[2]; male, Sprague-Dawley, rat, plasma, sc, 10 mg/kg, 10 mg/kg SC, 1 h, individual rats, read-out: Concentration (ng/ml) Rat 1-3", "result": 30700, "unit": "ng/mL"}, {"measurement": "concentration at 1 h", "setting": "[2]; male, Sprague-Dawley, rat, plasma, sc, 10 mg/kg, 10 mg/kg SC, 1 h, mean, read-out: Concentration Mean", "result": 31800, "unit": "ng/mL"}, {"measurement": "concentration at 2 h", "setting": "[2]; male, Sprague-Dawley, rat, plasma, sc, 10 mg/kg, 10 mg/kg SC, 2 h, individual rats, read-out: Concentration (ng/ml) Rat 1-3", "result": 31300, "unit": "ng/mL"}, {"measurement": "concentration at 2 h", "setting": "[2]; male, Sprague-Dawley, rat, plasma, sc, 10 mg/kg, 10 mg/kg SC, 2 h, mean, read-out: Concentration Mean", "result": 32400, "unit": "ng/mL"}, {"measurement": "concentration at 4 h", "setting": "[2]; male, Sprague-Dawley, rat, plasma, sc, 10 mg/kg, 10 mg/kg SC, 4 h, individual rats, read-out: Concentration (ng/ml) Rat 1-3", "result": 25700, "unit": "ng/mL"}, {"measurement": "concentration at 4 h", "setting": "[2]; male, Sprague-Dawley, rat, plasma, sc, 10 mg/kg, 10 mg/kg SC, 4 h, mean, read-out: Concentration Mean", "result": 26900, "unit": "ng/mL"}, {"measurement": "concentration at 8 h", "setting": "[2]; male, Sprague-Dawley, rat, plasma, sc, 10 mg/kg, 10 mg/kg SC, 8 h, individual rats, read-out: Concentration (ng/ml) Rat 1-3", "result": 22700, "unit": "ng/mL"}, {"measurement": "concentration at 8 h", "setting": "[2]; male, Sprague-Dawley, rat, plasma, sc, 10 mg/kg, 10 mg/kg SC, 8 h, mean, read-out: Concentration Mean", "result": 23600, "unit": "ng/mL"}, {"measurement": "concentration at 24 h", "setting": "[2]; male, Sprague-Dawley, rat, plasma, sc, 10 mg/kg, 10 mg/kg SC, 24 h, individual rats, read-out: Concentration (ng/ml) Rat 1-3", "result": 10300, "unit": "ng/mL"}, {"measurement": "concentration at 24 h", "setting": "[2]; male, Sprague-Dawley, rat, plasma, sc, 10 mg/kg, 10 mg/kg SC, 24 h, mean, read-out: Concentration Mean", "result": 12300, "unit": "ng/mL"}, {"measurement": "concentration at 48 h", "setting": "[2]; male, Sprague-Dawley, rat, plasma, sc, 10 mg/kg, 10 mg/kg SC, 48 h, individual rats, read-out: Concentration (ng/ml) Rat 1-3", "result": 4080, "unit": "ng/mL"}, {"measurement": "concentration at 48 h", "setting": "[2]; male, Sprague-Dawley, rat, plasma, sc, 10 mg/kg, 10 mg/kg SC, 48 h, mean, read-out: Concentration Mean", "result": 5770, "unit": "ng/mL"}, {"measurement": "concentration at 72 h", "setting": "[2]; male, Sprague-Dawley, rat, plasma, sc, 10 mg/kg, 10 mg/kg SC, 72 h, mean", "result": 2830, "unit": "ng/mL"}]}]}
